Experiments:
Experiment in all cases: relative viability (nuclei count vs DMSO), 5 days (fraction); higher = more cells survive
BI-2536 + Trametinib = compound: CC[C@@H]1C(=O)N(C)c2cnc(Nc3ccc(C(=O)NC4CCN(C)CC4)cc3OC)nc2N1C1CCCC1 [BI-2536] + CC(=O)Nc1cccc(-n2c(=O)n(C3CC3)c(=O)c3c(Nc4ccc(I)cc4F)n(C)c(=O)c(C)c32)c1 [Trametinib] (partner 0.02 µM)
Outline: (§1)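 Nuclei were stained with Hoechst during a one-step fixation (final 0.05% Triton X-100, 1% formaldehyde, 1 ug/ml Hoechst) carried out 5 days after dosing, then counted on 4× images. The cells, lung cancer lines in 1536-well plates, had been dosed by pin tool the day after seeding with one drug alone or a fixed anchor-drug dose plus five library-drug doses (not always all listed) in √10 steps. Relative viability is the nuclei count in treated wells divided by that in vehicle wells, and each value is the median of duplicate plates.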

BI-2536 + Foretinib = compound: CC[C@@H]1C(=O)N(C)c2cnc(Nc3ccc(C(=O)NC4CCN(C)CC4)cc3OC)nc2N1C1CCCC1 [BI-2536] + COc1cc2c(Oc3ccc(NC(=O)C4(C(=O)Nc5ccc(F)cc5)CC4)cc3F)ccnc2cc1OCCCN1CCOCC1 [Foretinib] (partner 0.25 µM)
Outline: as §1

[1] = compound: CC1CC(=O)N(C2=CN=C(N=C2N1C3CCCC3)NC4=C(C=C(C=C4)C(=O)NC5CCN(CC5)C)OC)C [NPK76-II-72-1] + Cc1nc(Nc2ncc(C(=O)Nc3c(C)cccc3Cl)s2)cc(N2CCN(CCO)CC2)n1 [Dasatinib] (partner 0.075 µM)
Outline: as §1

BI-2536 + Pictilisib = compound: CC[C@@H]1C(=O)N(C)c2cnc(Nc3ccc(C(=O)NC4CCN(C)CC4)cc3OC)nc2N1C1CCCC1 [BI-2536] + CS(=O)(=O)N1CCN(Cc2cc3nc(-c4cccc5[nH]ncc45)nc(N4CCOCC4)c3s2)CC1 [Pictilisib] (partner 1 µM)
Outline: as §1

Cell Line	relative viability (BI-2536 + Trametinib; first compound 0.01 µM)	relative viability (BI-2536 + Trametinib; first compound 0.03162 µM)	relative viability (BI-2536 + Trametinib; first compound 0.1 µM)	relative viability (BI-2536 + Trametinib; first compound 0.3162 µM)	relative viability (BI-2536 + Trametinib; first compound 1 µM)	relative viability (BI-2536 + Foretinib; first compound 0.01 µM)	relative viability (BI-2536 + Foretinib; first compound 0.03162 µM)	relative viability (BI-2536 + Foretinib; first compound 0.1 µM)	relative viability (BI-2536 + Foretinib; first compound 0.3162 µM)	relative viability (BI-2536 + Foretinib; first compound 1 µM)	relative viability ([1]; first compound 0.01 µM)	relative viability ([1]; first compound 0.03162 µM)	relative viability ([1]; first compound 0.1 µM)	relative viability ([1]; first compound 0.3162 µM)	relative viability ([1]; first compound 1 µM)	relative viability (BI-2536 + Pictilisib; first compound 0.01 µM)	relative viability (BI-2536 + Pictilisib; first compound 0.03162 µM)	relative viability (BI-2536 + Pictilisib; first compound 0.1 µM)	relative viability (BI-2536 + Pictilisib; first compound 0.3162 µM)	relative viability (BI-2536 + Pictilisib; first compound 1 µM)
NCI-H3122	0.226	0.239	0.209	0.131	0.171	0.969	0.916	0.488	0.122	0.118	0.796	0.802	0.76	0.697	0.956	0.55	0.555	0.153	0.23	0.201
NCI-H460	0.205	0.154	0.0447	0.0185	0.0133	1.11	1.06	0.147	0.0166	0.02	0.512	0.543	0.497	0.458	0.501	0.276	0.375	0.33	0.0337	0.0494
NCI-H650	0.847	0.956	0.858	0.152	0.16	0.981	0.952	0.678	0.207	0.155	0.457	0.455	0.411	0.423	0.494	0.849	0.584	0.245	0.206	0.15
NCI-H661	0.587	0.427	0.291	0.238	0.264	1.13	0.889	0.388	0.296	0.309	0.825	0.914	0.94	0.729	1.12	0.411	0.37	0.255	0.247	0.217
NCI-H1793	0.37	0.435	0.251	0.177	0.183	0.585	0.364	0.202	0.164	0.173	0.328	0.432	0.412	0.383	0.386	0.294	0.214	0.191	0.174	0.159
NCI-H1734	0.723	0.638	0.593	0.173	0.165	0.886	0.889	0.464	0.199	0.176	0.513	0.493	0.455	0.437	0.509	0.402	0.387	0.347	0.17	0.216
LXF-289	0.68	0.654	0.64	0.12	0.102	1.03	0.826	0.613	0.0393	0.0552	0.211	0.199	0.199	0.218	0.238	0.839	0.759	0.126	0.0466	0.0562
H3255	0.571	0.582	0.294	0.281	0.424	0.769	1.03	0.49	0.261	0.218	0.406	0.314	0.323	0.245	0.35	0.503	0.503	0.305	0.176	0.182

Source: the supplement of paper PMC10307832
